In patent publication US12448366B2, “Solid forms of pralsetinib” (Rigel Pharmaceuticals, Inc., priority 2020, dated 2025):
“Also recorded” adds a separate entry of the source.

Columns and labels:
Format in all cases: physicochemical
[1] = Humidity exposure, 75% relative humidity at 40° C. for one week, XRPD; details: one week / 7 days, XRPD
[2] = Dynamic vapor sorption (DVS); details: for XRPD / form stability after DVS humidity cycling: XRPD before and after DVS
Description: Dynamic Vapor Sorption (DVS) was done using a DVS Intrinsic 1. The sample is loaded into a sample pan and suspended from a microbalance. A typical sample mass for DVS measurement is 25 mg. Nitrogen gas bubbled through distilled water provides the desired relative humidity. A typical measurement comprises the steps: • 1—Equilibrate at 50% RH • 2—50% to 2%. (50%, 40%, 30%, 20%, 10% and 2%) • a. Hold minimum of 5 mins and maximum of 60 minutes at each humidity. The pass criteria is less than 0.002% change • 3—2% to 95% (2%, 10%, 20%, 30%, 40%, 50%, 60%, 70%, 80%, 90%, 95%) • a. Hold minimum of 5 mins and maximum of 60 minutes at each humidity. The pass criteria is less than 0.002% change • 4—95% to 2% (95%, 80%, 70%, 60%, 50%, 40%, 30%, 20%, 10%, 2%) • a. Hold minimum of 5 mins and maximum of 60 minutes at each humidity. The pass criteria is less than 0.002% change • 5—2% to 50% (2%, 10%, 20%, 30%, 40%, 50%) • a. Hold minimum of 5 mins and maximum of 60 minutes at each humidity. The pass criteria is less than 0.002% change High Pressure Liquid Chromatography (HPLC)
Dynamic Vapor Sorption (DVS) was performed using a DVS Intrinsic 1. The samples (12-31 mg) was loaded into a sample pan, suspended from a microbalance and exposed to a humidified stream of nitrogen gas. The sample was held for a minimum of 5 min at each level and only progressed to the next humidity level if there was <0.002% change in weight between measurements (interval: 60 seconds) or 240 min had elapsed. The following program was used: • 1—Equilibration at 50% RH • 2—50% to 2%. (50%, 40%, 30%, 20%, 10% and 2%) • 3—2% to 95% (2%, 10%, 20%, 30%, 40%, 50%, 60%, 70%, 80%, 90%, 95%) • 4—95% to 2% (95%, 80%, 70%, 60%, 50%, 40%, 30%, 20%, 10%, 2%) • 5—2% to 50% (2%, 10%, 20%, 30%, 40%, 50%) High Performance Liquid Chromatography (HPLC)

[3] = Evaporative crystallization (Example 2B), XRPD; details: evaporative crystallization at 50° C., to be confirmed by other analytical methods
Description: Supernatant from some slurries was recovered for evaporative crystallization. The solutions were evaporated to dryness at 50° C. in atmospheric pressure and then placed at 50° C. under vacuum for 1.5 hours. […] It is possible that these solids were solvates with structures that collapsed to amorphous solids upon drying. Where two experiment numbers are indicated, evaporation was at different concentration.

[4] = Short term slurries (Example 2A), XRPD; details: short term slurry, starting solids Pattern C
Description: Short term slurries were carried out at two temperature in 15 solvents during the initial screening. Starting solids were Pattern C. Most solids were Pattern C after slurrying. Solids converted to Pattern A in EtOH, IPA, acetone, and acetonitrile at both temperatures.
The upper phase was sticky and when filtered yielded a low amount of a solid form characterized by XRPD Pattern H.

[5] = Thermal treatment in DSC followed by XRPD (Example 2G); details: 150° C.
Source text: Select solids were used for thermal treatment in DSC. Solids were heated to specified temperature and then cooled back to room temperature for analysis by XRPD.

[6] = Antisolvent crystallization (Example 2D), XRPD; details: for XRPD results of direct antisolvent experiments: direct addition; for XRPD results of reverse antisolvent experiments: reverse addition
Description: Antisolvent crystallization was done in various solvent systems. First, about 30 mg solid free base of Compound (I) characterized by XRPD Pattern C (solid form C) was dissolved in solvent. Then antisolvent crystallization was done either using the direct or reverse addition method. For direct addition, antisolvent was added dropwise to the solution until a slurry was formed. For reverse addition, solution was added all at once to the antisolvent. The volume of antisolvent used was 4 times the volume of solvent required to dissolve the solid. For example, if 0.15 mL solvent was required to dissolve the solid then the solution was added at once to […] antisolvent. Once solids were formed, the slurries were filtered and solids were recovered for XRPD analysis.

[7] = Competitive slurry experiments between free base solid forms
[8] = Cooling crystallization (Example 2C), XRPD; details: for XRPD Pattern (fast cool): crash cooling from 50° C. to 0° C.; for XRPD Pattern (slow cool): from 50° C. at 5° C. per hour
Description: Cooling crystallization was done in a range of solvent systems. Two cooling regimes were used: cooling from 50° C. at 5° C. per hour, and crash cooling from 50° C. to 0° C. In all experiments, solids were completely dissolved before cooling. […] Cooling in THF gave two low crystallinity solids, Solid form N (fast cooling), and solid form I (slow cooling).

[9] = Drying of free base solid forms (XRPD); details: 50° C., (under vacuum where stated)
[10] = solvent DMAc, antisolvent cyclohexane
[11] = solvent DMAc, antisolvent water
[12] = cooling crystallization, ACN water (8:2 vol)
[13] = cooling crystallization, DMAc:ACN (2:8 vol)
[14] = cooling crystallization, DMAc:IPA (2:8 vol)
[15] = cooling crystallization, DMSO:ACN (2:8 vol)
[16] = cooling crystallization, DMSO:IPA (2:8 vol)
[17] = cooling crystallization, MeOH chloroform (1.88:1 vol), wet solid before drying

CO[C@]1(C(=O)N[C@@H](C)c2ccc(-n3cc(F)cn3)nc2)CC[C@H](c2nc(C)cc(Nc3cc(C)[nH]n3)n2)CC1 [Solid Form C, pralsetinib]
stability on exposure to 75% relative humidity at 40° C. [1]: remained stable
stability on exposure to 75% relative humidity at 40° C. ([1]; listed as Pattern C): remained unchanged
water gained during the dynamic vapor sorption measurements [2]: 1.44%
hygroscopicity (words) ([2]; DVS): not as hygroscopic as pralsetinib free base in solid form A
DVS Water Mass Change (wt. %) ([2]; Table 3E): 1.29-1.44 wt. %
XRPD / form stability after DVS humidity cycling [2]: the same
XRPD / form stability after DVS humidity cycling ([2]; listed as Solid form C): remained stable
reversible mass change by DVS ([2]; between 2-95% relative humidity): about 1.4%
total mass change observed by DVS ([2]; humidity range not given): 1.4 wt. %
XRPD Pattern ([3]; DCM, solution 37 mg/mL solvent): amorphous*
XRPD Pattern ([3]; chloroform, solution 70 mg/mL solvent): amorphous*
XRPD Pattern ([4]; EtOH, 22-23° C., dried solids): A (dry)
XRPD Pattern ([4]; EtOH, 22-23° C., wet solids): A (wet)
XRPD Pattern ([4]; IPAc, 50° C.): A + C
XRPD Pattern ([4]; chloroform, 22-23° C., dried solids): H (dry)
XRPD Pattern ([4]; chloroform, 22-23° C., wet solids): H (wet)
solid form after heating to 150° C. [5]: converted to Pattern B (anhydrous); also recorded: converted to solid form B
XRPD results of direct antisolvent experiments [6, 10]: phase sep.
XRPD results of direct antisolvent experiments [6, 11]: C + some B (wet)
XRPD results of direct antisolvent experiments ([6]; solvent THF, antisolvent water): oiling
XRPD results of reverse antisolvent experiments [6, 10]: phase sep.
XRPD results of reverse antisolvent experiments [6, 11]: C (wet)
XRPD results of reverse antisolvent experiments ([6]; solvent MeOH, antisolvent water): C (wet)
XRPD results of reverse antisolvent experiments ([6]; solvent THF, antisolvent heptane): am. (wet)
XRPD results of reverse antisolvent experiments ([6]; solvent THF, antisolvent water): C (wet)
competitive slurry in acetone and isopropanol [7]: converted to solid form A
Competitive slurry MeOH: water (1:1 vol) at 23 and 50° C. ([7]; listed as Pattern C): C stable
Competitive slurry isopropanol, MeOH:MtBE ([7]; listed as Pattern C): C converts to A
XRPD Pattern (fast cool) ([8]; cooling crystallization, 1,4-dioxane): no solids (−20° C.)
XRPD Pattern (slow cool) ([8]; cooling crystallization, 1,4-dioxane, wet solid before drying): Q (wet)
XRPD Pattern (fast cool) ([8]; cooling crystallization, 1-propanol): no solids (−20° C.)
XRPD Pattern (slow cool) ([8]; cooling crystallization, 1-propanol, wet solid before drying): A (wet)
XRPD Pattern (fast cool) [8, 12]: no solids (−20° C.)
XRPD Pattern (slow cool) [8, 12]: no solids (−20° C.)
XRPD Pattern (fast cool) [8, 13]: no solids (−20° C.)
XRPD Pattern (slow cool) [8, 13]: no solids (−20° C.)
XRPD Pattern (fast cool) [8, 14]: no solids (−20° C.)
XRPD Pattern (slow cool) [8, 14]: no solids (−20° C.)
XRPD Pattern (fast cool) [8, 15]: no solids (−20° C.)
XRPD Pattern (slow cool) [8, 15]: no solids (−20° C.)
XRPD Pattern (fast cool) [8, 16]: no solids (−20° C.)
XRPD Pattern (slow cool) [8, 16]: no solids (−20° C.)
XRPD Pattern (fast cool) ([8]; cooling crystallization, EtOAc): no solids (−20° C.)
XRPD Pattern (slow cool) ([8]; cooling crystallization, EtOAc): very few solids
XRPD Pattern (fast cool) ([8]; cooling crystallization, EtOH): no solids (−20° C.)
XRPD Pattern (slow cool) ([8]; cooling crystallization, EtOH): no solids (−20° C.)
XRPD Pattern (fast cool) ([8]; cooling crystallization, IPA): no solids (−20° C.)
XRPD Pattern (slow cool) ([8]; cooling crystallization, IPA): A (wet)
XRPD Pattern (fast cool) ([8]; cooling crystallization, IPAc): no solids (−20° C.)
XRPD Pattern (slow cool) ([8]; cooling crystallization, IPAc): no solids (−20° C.)
XRPD Pattern (fast cool) [8, 17]: D (wet)
XRPD Pattern (slow cool) [8, 17]: D (wet)
XRPD Pattern (slow cool) ([8]; cooling crystallization, MeOH): no solids (−20° C.)
XRPD Pattern (fast cool) ([8]; cooling crystallization, THF): N (wet)
XRPD Pattern (slow cool) ([8]; cooling crystallization, THF, wet solid before drying): O + I (wet)
XRPD Pattern (fast cool) ([8]; cooling crystallization, acetone): no solids (−20° C.)
behaviour upon drying at 50° C. [9]: converted to a dehydrate, Solid Form B
behaviour upon drying at 50° C. ([9]; listed as Pattern C): pattern B
behaviour upon drying at 50° C. ([9]; listed as solid form C): stable
